According to patent publication US9700057B2, “Bradyrhizobium strains” (NOVOZYMES BIOAG A/S, priority 2011, dated 2017):

Tested on: parental strain USDA 532C
Experiment: Kill rate of USDA 532C using the mutagen ethyl methanesulfonate (EMS)
Format: cell-based, Bradyrhizobia japonicum
Description: The following experiment(s) were performed to determine the application rate of the mutagen, ethyl methanosulfonate (EMS) that would give a 99.9-99.99 percent kill rate for parental strain USDA 532C. This rate determination will become part of the mutagenesis protocol used to generate desiccation-resistant putative mutants although the method of mutagenesis may evolve for efficiency.
Parental strain USDA 532C was grown in six 10 ml YEM disposable culture tubes for two days and 5 ml of the culture was inoculated into four 250 ml flasks containing 50 ml YEM medium. The flasks were incubated for two days at 30° C. shaker. The culture from the flasks were subsequently centrifuged in 50 ml disposable sterile tubes at 8,000 rpm for ten minutes in a Sorvall RC 6 Plus® centrifuge and combined into one tube. The pellet was re-suspended in 4 ml of fresh YEM medium and separated into four 1.5 ml microcentrifuge tubes. The tubes would each represent different application rates used for the mutagenesis process.
Once the culture have been aliquoted into separate tubes and the mutagen EMS (Sigma, C3H8O3S, FW 124.16, #M0880-1G) added to each tube, the tubes were vortexed vigorously and placed in an empty 250 ml flask. The flask containing the reaction tubes were incubated for 30 minutes at 30° C. in a shaker. Immediately following the incubation period, the tubes were washed five times with 0.16M sodium thiosulfate (STS, Fisher Chemical, Na2S2O3*5H2O, FW 248.18, #S445-3)) solution to inactivate the mutagen. After washing, the cells in the reaction tubes were sheared with 21 gauge syringe needle (BD 1 ml 21G1 Latex Free Syringe PrecisionGlide® Needle, 0.8 mm×25 mm, #309624) and dilutions were completed and plated on YEMA plates. The cell counts were available after five days incubation at 30° C. and the percent kill of the EMS application rate was calculated. To calculate the percent kill rate for each application rate, the following equation was used: ([cell count 0 μl EMS (control)−(cell count of μl EMS (treatment))÷cell count 0 μl EMS (control)]×100%). All other experiments following this experiment used this equation to calculate the percent kill rate.

[1] = Table 12, 25 μl EMS, decreased washing
[2] = Table 14 (repeat of Table 13), 40 μl EMS
[3] = Table 14 (repeat of Table 13), 45 μl EMS
[4] = Table 15 (repeat of Table 14), 45 μl EMS
[5] = Table 15 (repeat of Table 14), 50 μl EMS

CCOS(C)(=O)=O [EMS, ethyl methanesulfonate]
Cell counts (approximate cfu/ml) (Table 10, 10 μl EMS, 30 minutes at 30° C.): no difference
Cell counts (approximate cfu/ml) (Table 11, 15 μl EMS): 2.24 × 10^9 cfu/ml
Percent kill rate (Table 11, 15 μl EMS): 10.17%
Cell counts (approximate cfu/ml) (Table 11, 25 μl EMS): 1.72 × 10^9 cfu/ml
Percent kill rate (Table 11, 25 μl EMS): 30.92%
Cell counts (approximate cfu/ml) (Table 11, 50 μl EMS): 1.67 × 10^1 cfu/ml
Cell counts (approximate cfu/ml) [1]: 1.27 × 10^9 cfu/ml
Percent kill rate [1]: 73.09%
Cell counts (approximate cfu/ml) (Table 12, 35 μl EMS): 5.37 × 10^8 cfu/ml
Percent kill rate (Table 12, 35 μl EMS): 88.58%
Cell counts (approximate cfu/ml) (Table 12, 50 μl EMS): 2.93 × 10^2 cfu/ml
Percent kill rate (Table 12, 50 μl EMS): 100%
Cell counts (approximate cfu/ml) (Table 13, 40 μl EMS): 6.97 × 10^8 cfu/ml
Percent kill rate (Table 13, 40 μl EMS): 82.26%
Cell counts (approximate cfu/ml) (Table 13, 45 μl EMS): 8.57 × 10^7 cfu/ml
Percent kill rate (Table 13, 45 μl EMS): 97.82%
Cell counts (approximate cfu/ml) (Table 13, 50 μl EMS): 2.65 × 10^5 cfu/ml
Percent kill rate (Table 13, 50 μl EMS): 99.99%
Cell counts (approximate cfu/ml) [2]: 1.35 × 10^9 cfu/ml
Percent kill rate [2]: 99.81%
Cell counts (approximate cfu/ml) [3]: 5.27 × 10^8 cfu/ml
Percent kill rate [3]: 99.93%
Cell counts (approximate cfu/ml) (Table 14 (repeat of Table 13), 50 μl EMS): 2.19 × 10^6 cfu/ml
Cell counts (approximate cfu/ml) [4]: 3.33 × 10^4 cfu/ml
Percent kill rate [4]: 99.98%
Cell counts (approximate cfu/ml) [5]: 4.33 × 10^1 cfu/ml
Percent kill rate [5]: 100%
